Assay results from paper PMC9492542, “Brain-restricted mTOR inhibition with binary pharmacology” (Nature, 2022).
Like-named read-outs stand apart in the source and are kept apart here. Each block holds one compound with its values, some of them ahead of it.

What was measured:
FKBP12 = molecular target: T1, FKBP12 (Homo sapiens, UniProt P62942); assay: Competition fluorescence polarization assay with FITC-rapamycin tracer; assay type: binding
T1 construct: His-tag (HRV 3C cleavable) (cleaved yes); made in house; host or cells: Escherichia coli BL21(DE3)
Protocol: Compound binding affinity was determined using a competition fluorescence polarization assay. […] The assay buffer was 20 mM HEPES pH 7.5 and 0.01% Triton X-100. […] Data were fitted to a three-parameter sigmoidal curve to derive IC50 values. Ki of the compounds were calculated using a tool provided by S. Wang’s laboratory (http://www.umich.edu/~shaomengwanglab/software/calc_ki/index.html). Data were plotted in GraphPad Prism 9.0.

mTOR = molecular target: T2, mTOR (Homo sapiens, UniProt P42345); assay: In vitro mTOR kinase inhibition assay (SelectScreen Z'-LYTE), with or without 10 µM FKBP12; assay type: biochemical; details: for remaining activity at 4.95 pM / remaining activity at 15.2 pM / remaining activity at 45.7 pM / remaining activity at 0.000137 µM / remaining activity at 0.000412 µM / remaining activity at 0.00123 µM / remaining activity at 0.0111 µM / remaining activity at 0.0333 µM / remaining activity at […]: read-out: residual kinase activity (mTOR); for remaining activity at 0.0333 µM: 33.3 nM drug
T2 construct: We performed in vitro kinase assays with purified mTOR protein; purchased SelectScreen Services (Thermo Fisher Scientific)
Protocol: In vitro kinase inhibition assays were performed by SelectScreen Services (Thermo Fisher Scientific) using either Z’-LYTE (mTOR, Src, Csk, EGFR, HER2 and HGK), Adapta (LRRK2) or LanthaScreen (DDR2) assay format (standardized protocols can be accessed on the SelectScreen website: https://www.thermofisher.com/us/en/home/products-and-services/services/custom-services/screening-and-profiling-services/selectscreen-profiling-service/selectscreen-kinase-profiling-service.html. When indicated, recombinant FKBP12 protein was added to the assay mixture to a final concentration of 10 µM.

[1] = recombinant FKBP12, Extended Data Fig. 2, read-out: Kd (FKBP12)

T2 sequence (P42345 1360-2549 limits assumed): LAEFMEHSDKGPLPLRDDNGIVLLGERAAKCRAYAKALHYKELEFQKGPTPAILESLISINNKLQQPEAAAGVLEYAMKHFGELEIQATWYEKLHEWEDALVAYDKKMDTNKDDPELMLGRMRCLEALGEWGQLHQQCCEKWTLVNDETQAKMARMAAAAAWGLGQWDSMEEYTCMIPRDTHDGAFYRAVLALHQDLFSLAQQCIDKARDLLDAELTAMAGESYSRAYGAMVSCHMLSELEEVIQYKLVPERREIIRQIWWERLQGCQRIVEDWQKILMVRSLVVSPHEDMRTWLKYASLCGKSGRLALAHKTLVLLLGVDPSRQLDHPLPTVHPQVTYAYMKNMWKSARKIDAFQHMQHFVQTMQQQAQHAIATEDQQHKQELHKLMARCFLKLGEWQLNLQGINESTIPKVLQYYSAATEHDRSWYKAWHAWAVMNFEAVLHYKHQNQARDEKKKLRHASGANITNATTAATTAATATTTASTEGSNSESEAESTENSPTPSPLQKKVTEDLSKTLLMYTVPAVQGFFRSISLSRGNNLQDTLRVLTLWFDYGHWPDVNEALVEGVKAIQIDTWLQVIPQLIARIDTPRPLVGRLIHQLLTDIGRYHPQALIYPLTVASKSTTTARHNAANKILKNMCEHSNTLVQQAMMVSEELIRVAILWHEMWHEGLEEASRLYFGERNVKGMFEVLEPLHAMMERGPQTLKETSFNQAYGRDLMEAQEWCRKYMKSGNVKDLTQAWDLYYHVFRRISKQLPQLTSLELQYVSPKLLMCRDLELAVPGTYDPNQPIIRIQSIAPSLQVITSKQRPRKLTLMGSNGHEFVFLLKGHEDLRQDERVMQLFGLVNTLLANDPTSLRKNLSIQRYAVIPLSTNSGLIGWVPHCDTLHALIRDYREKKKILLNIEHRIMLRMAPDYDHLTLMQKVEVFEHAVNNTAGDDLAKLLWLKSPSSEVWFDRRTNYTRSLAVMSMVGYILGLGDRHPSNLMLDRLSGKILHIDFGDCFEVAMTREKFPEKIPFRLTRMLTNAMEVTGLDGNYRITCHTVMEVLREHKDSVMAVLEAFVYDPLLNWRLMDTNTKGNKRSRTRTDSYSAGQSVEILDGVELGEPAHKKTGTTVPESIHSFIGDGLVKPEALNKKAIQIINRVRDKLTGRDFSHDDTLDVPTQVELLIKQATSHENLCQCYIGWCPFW
T1 sequence (P62942 whole entry): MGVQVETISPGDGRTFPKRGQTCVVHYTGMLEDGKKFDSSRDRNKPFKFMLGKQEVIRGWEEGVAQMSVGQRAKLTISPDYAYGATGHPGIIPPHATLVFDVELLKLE

SMILES: CCC(C)(C)C(=O)C(=O)N1CCCC[C@H]1C(=O)O[C@H](CCc1ccc(OC)c(OC)c1)c1cccc(NC(=O)CN2CCOCC2)c1 [Compound 01-043]
- Kd (FKBP12; [1]): 15 nM

SMILES: CCC(C)(C)C(=O)C(=O)N1CCCC[C@H]1C(=O)O[C@H](CCc1ccc(OC)c(OC)c1)c1cccc(NCCN)c1 [Compound 02-032]
- Kd (FKBP12; [1]): 36 nM

SMILES: CCC(C)(C)C(=O)C(=O)N1CCCC[C@H]1C(=O)O[C@H](CCc1ccc(OC)c(OC)c1)c1cccc(NC(=O)CN=[N+]=[N-])c1 [Compound 02-096]
- Kd (FKBP12; [1]): 6 nM

SMILES: CC(C)n1nc(-c2ccc3oc(N)nc3c2)c2c(N)ncnc21 [MLN128]
- residual kinase activity (mTOR) (mTOR; 0.00495 nM drug, +FKBP): 101
- remaining activity at 4.95 pM (mTOR; 0.00495 nM drug, +FKBP): 103%
- residual kinase activity (mTOR) (mTOR; 0.00495 nM drug, no FKBP): 101
- remaining activity at 4.95 pM (mTOR; 0.00495 nM drug, no FKBP): 105%
- residual kinase activity (mTOR) (mTOR; 0.0152 nM drug, +FKBP): 105
- remaining activity at 15.2 pM (mTOR; 0.0152 nM drug, +FKBP): 103%
- residual kinase activity (mTOR) (mTOR; 0.0152 nM drug, no FKBP): 106
- remaining activity at 15.2 pM (mTOR; 0.0152 nM drug, no FKBP): 101%
- residual kinase activity (mTOR) (mTOR; 0.0457 nM drug, +FKBP): 105
- remaining activity at 45.7 pM (mTOR; 0.0457 nM drug, +FKBP): 102%
- residual kinase activity (mTOR) (mTOR; 0.0457 nM drug, no FKBP): 104
- remaining activity at 45.7 pM (mTOR; 0.0457 nM drug, no FKBP): 102%
- residual kinase activity (mTOR) (mTOR; 0.137 nM drug, +FKBP): 101
- remaining activity at 0.000137 µM (mTOR; 0.137 nM drug, +FKBP): 106%
- remaining activity at 0.000137 µM (mTOR; 0.137 nM drug, no FKBP): 103%
- residual kinase activity (mTOR) (mTOR; 0.412 nM drug, +FKBP): 96
- remaining activity at 0.000412 µM (mTOR; 0.412 nM drug, +FKBP): 97%
- residual kinase activity (mTOR) (mTOR; 0.412 nM drug, no FKBP): 98
- remaining activity at 0.000412 µM (mTOR; 0.412 nM drug, no FKBP): 99%
- residual kinase activity (mTOR) (mTOR; 1.23 nM drug, +FKBP): 83
- remaining activity at 0.00123 µM (mTOR; 1.23 nM drug, +FKBP): 84%
- residual kinase activity (mTOR) (mTOR; 1.23 nM drug, no FKBP): 81
- remaining activity at 0.00123 µM (mTOR; 1.23 nM drug, no FKBP): 84%
- remaining activity at 0.0111 µM (mTOR; 11.1 nM drug, +FKBP): 19%
- residual kinase activity (mTOR) (mTOR; 11.1 nM drug, no FKBP): 17
- remaining activity at 0.0111 µM (mTOR; 11.1 nM drug, no FKBP): 18%
- remaining activity at 0.0333 µM (mTOR; +FKBP): 6%
- remaining activity at 0.0333 µM (mTOR; no FKBP): 6%
- residual kinase activity (mTOR) (mTOR; […] drug, +FKBP): 53
- remaining activity at […] (mTOR; […] drug, +FKBP): 49%
- residual kinase activity (mTOR) (mTOR; […] drug, no FKBP): 50
- remaining activity at […] (mTOR; […] drug, no FKBP): 48%

SMILES: CCC(C)(C)C(=O)C(=O)N1CCCC[C@H]1C(=O)O[C@H](CCc1ccc(OC)c(OC)c1)c1cccc(NCC(=O)O)c1 [Compound 01-060A]
- Kd (FKBP12; [1]): 46 nM

SMILES: CO[C@H]1C[C@@H](C)C/C(C)=C/[C@@H](CCCSC[C@H](N)C(=O)O)C(=O)C[C@H](O)[C@@H](C)[C@@H](/C(C)=C/[C@@H]2CC[C@@H](O)[C@H](OC)C2)OC(=O)[C@@H]2CCCCN2C(=O)C(=O)[C@]2(O)O[C@H]1[C@@H](OC)C[C@H]2C [Compound 05-037]
- Kd (FKBP12): 8.7 nM

SMILES: C=CC(=O)Nc1cccc([C@@H](CCc2ccc(OC)c(OC)c2)OC(=O)[C@@H]2CCCCN2C(=O)C(=O)C(C)(C)CC)c1 [Compound 02-014]
- Kd (FKBP12; [1]): 64 nM

SMILES: CCC(C)(C)C(=O)C(=O)N1CCCC[C@H]1C(=O)O[C@H](CCc1ccc(OC)c(OC)c1)c1cccc(NC(=O)CNN)c1 [Compound 01-070]
- Kd (FKBP12; [1]): 21 nM

SMILES: CCC(C)(C)C(=O)C(=O)N1CCCC[C@H]1C(=O)O[C@H](CCc1ccc(OC)c(OC)c1)c1cccc(NC(=O)CCOCCOCCN)c1 [Compound 03-077]
- Kd (FKBP12; [1]): 44 nM

SMILES: CCC(C)(C)C(=O)C(=O)N1CCCC[C@H]1C(=O)O[C@H](CCc1ccc(OC)c(OC)c1)c1cccc(NC(=O)Cc2ccccn2)c1 [Compound 03-083]
- Kd (FKBP12; [1]): 31 nM

SMILES: CO[C@H]1C[C@@H](C)C/C(C)=C/[C@@H](CCCC(=O)Nc2ccccn2)C(=O)C[C@H](O)[C@@H](C)[C@@H](/C(C)=C/[C@@H]2CC[C@@H](O)[C@H](OC)C2)OC(=O)[C@@H]2CCCCN2C(=O)C(=O)[C@]2(O)O[C@H]1[C@@H](OC)C[C@H]2C [Compound 05-064]
- Kd (FKBP12): 0.2 nM

SMILES: CO[C@H]1C[C@@H](C)C/C(C)=C/[C@@H](CCCC(=O)O)C(=O)C[C@H](O)[C@@H](C)[C@@H](/C(C)=C/[C@@H]2CC[C@@H](O)[C@H](OC)C2)OC(=O)[C@@H]2CCCCN2C(=O)C(=O)[C@]2(O)O[C@H]1[C@@H](OC)C[C@H]2C [Compound 05-020]
- Kd (FKBP12): 1.5 nM

SMILES: CCC(C)(C)C(=O)C(=O)N1CCCC[C@H]1C(=O)O[C@H](CCc1ccc(OC)c(OC)c1)c1cccc(NC(=O)CN)c1 [Compound 01-040]
- Kd (FKBP12; [1]): 21 nM

SMILES: CO[C@H]1C[C@@H](C)C/C(C)=C/[C@@H](CCCc2ccccn2)C(=O)C[C@H](O)[C@@H](C)[C@@H](/C(C)=C/[C@@H]2CC[C@@H](O)[C@H](OC)C2)OC(=O)[C@@H]2CCCCN2C(=O)C(=O)[C@]2(O)O[C@H]1[C@@H](OC)C[C@H]2C [05-084 (06-039)]
- Kd (FKBP12; [1]): 3.3 nM

SMILES: CCC(C)(C)C(=O)C(=O)N1CCCC[C@H]1C(=O)O[C@H](CCc1ccc(OC)c(OC)c1)c1cccc(NC(=O)C[N+](C)(C)C)c1 [Compound 01-025]
- Kd (FKBP12; [1]): 95 nM

SMILES: CCC(C)(C)C(=O)C(=O)N1CCCC[C@H]1C(=O)O[C@H](CCc1ccc(OC)c(OC)c1)c1cccc(OCC(=O)O)c1 [Compound 01-041]
- Kd (FKBP12; [1]): 38 nM

Continued, values first:

- Kd (FKBP12; [1]): 0.2 nM
SMILES: CO[C@H]1C[C@@H](C)C/C(C)=C/[C@@H](C/C=C/c2cc[n+]([O-])cc2)C(=O)C[C@H](O)[C@@H](C)[C@@H](/C(C)=C/[C@@H]2CC[C@@H](O)[C@H](OC)C2)OC(=O)[C@@H]2CCCCN2C(=O)C(=O)[C@]2(O)O[C@H]1[C@@H](OC)C[C@H]2C [Compound 05-061]

- Kd (FKBP12; [1]): 19 nM
SMILES: CCC(C)(C)C(=O)C(=O)N1CCCC[C@H]1C(=O)O[C@H](CCc1ccc(OC)c(OC)c1)c1cccc(NC(=O)CCOCCN)c1 [Compound 03-084]

- Kd (FKBP12; [1]): 0.6 nM
SMILES: CO[C@H]1C[C@@H](C)C/C(C)=C/[C@@H](C/C=C/c2cccc[n+]2[O-])C(=O)C[C@H](O)[C@@H](C)[C@@H](/C(C)=C/[C@@H]2CC[C@@H](O)[C@H](OC)C2)OC(=O)[C@@H]2CCCCN2C(=O)C(=O)[C@]2(O)O[C@H]1[C@@H](OC)C[C@H]2C [Compound 05-060]

- Kd (FKBP12; [1]): 2.5 nM
SMILES: CO[C@H]1C[C@@H](C)C/C(C)=C/[C@@H](CCCc2cc[n+]([O-])cc2)C(=O)C[C@H](O)[C@@H](C)[C@@H](/C(C)=C/[C@@H]2CC[C@@H](O)[C@H](OC)C2)OC(=O)[C@@H]2CCCCN2C(=O)C(=O)[C@]2(O)O[C@H]1[C@@H](OC)C[C@H]2C [Compound 05-092]

- Kd (FKBP12; [1]): 29 nM
SMILES: CCC(C)(C)C(=O)C(=O)N1CCCC[C@H]1C(=O)O[C@H](CCc1ccc(OC)c(OC)c1)c1cccc(NC(=O)Cc2cccc[n+]2[O-])c1 [Compound 03-087]

- Kd (FKBP12; [1]): 1.4 nM
SMILES: CO[C@H]1C[C@@H](C)C/C(C)=C/[C@@H](CCCSCCN(C)C)C(=O)C[C@H](O)[C@@H](C)[C@@H](/C(C)=C/[C@@H]2CC[C@@H](O)[C@H](OC)C2)OC(=O)[C@@H]2CCCCN2C(=O)C(=O)[C@]2(O)O[C@H]1[C@@H](OC)C[C@H]2C [Compound 05-013]

- Kd (FKBP12; [1]): 0.4 nM
SMILES: CO[C@H]1C[C@@H](C)C/C(C)=C/[C@@H](C/C=C/C(=O)O)C(=O)C[C@H](O)[C@@H](C)[C@@H](/C(C)=C/[C@@H]2CC[C@@H](O)[C@H](OC)C2)OC(=O)[C@@H]2CCCCN2C(=O)C(=O)[C@]2(O)O[C@H]1[C@@H](OC)C[C@H]2C [Compound 05-012]

- Kd (FKBP12; [1]): 0.7 nM
SMILES: CO[C@H]1C[C@@H](C)C/C(C)=C/[C@@H](CCCSCCN)C(=O)C[C@H](O)[C@@H](C)[C@@H](/C(C)=C/[C@@H]2CC[C@@H](O)[C@H](OC)C2)OC(=O)[C@@H]2CCCCN2C(=O)C(=O)[C@]2(O)O[C@H]1[C@@H](OC)C[C@H]2C [Compound 05-011]

- Kd (FKBP12; [1]): 2.5 nM
SMILES: CO[C@H]1C[C@@H](C)C/C(C)=C/[C@@H](CCCSCCNC(=O)CNc2ccccn2)C(=O)C[C@H](O)[C@@H](C)[C@@H](/C(C)=C/[C@@H]2CC[C@@H](O)[C@H](OC)C2)OC(=O)[C@@H]2CCCCN2C(=O)C(=O)[C@]2(O)O[C@H]1[C@@H](OC)C[C@H]2C [Compound 05-028]
